US10159651B2, “Two-stage microparticle-based therapeutic delivery system and method” (Privo Technologies, Inc., priority 2016, dated 2018)

Legend:
[1] = permeation of fluorescent dyes from multi-layered device into buccal tissue; assay type: in vitro ADME, lamb
From the text: FIGS. 5A-5C show three images taken from lamb buccal tissue at different time points.
In another representative embodiment, a multi-layered device may be used for the delivery of multiple agents over a prolonged period of time (FIG. 4, FIG. 5). If the example of mucositis is again used, multiple layers may include a pain mitigator in free form, a pain mitigator encapsulated within microparticles and an agent for the treatment of mucositis encapsulated within microparticles. The initial freeform layer is able to provide immediate pain relief, and the subsequent particle-encapsulated layers are capable of delivering microparticles beneath the tissue, where they further release their agents over a period of days, providing longer-term pain relief and treatment. FIG. 4 and FIG. 5 illustrate this effect. Fluorescence was used in order to provide detection. As shown, the multiple fluorescent layers released over time and permeated the tissue at different rates, providing a customized treatment.

[2] = release profile of cisplatin from particles, detected by atomic absorption spectrometry; assay type: physicochemical; details: over 60 hours; particles of average diameter 500 to 2000 nm
From the text: FIG. 1 is a graph showing the release profile of example particles having an average diameter in the range of 500 to 2000 nm. […] Cisplatin was used for this experiment due to its use in the treatment of oral cancer and its ease of detection via atomic absorption spectrometry (AAS).

## O=C1OC2(c3ccc(O)cc3Oc3cc(O)ccc32)c2ccc(N=C=S)cc21 [FITC]
[1]; after 30 minutes
  permeation into tissue: beginning to permeate the tissue
[1]; after 1 hour
  permeation into tissue: permeating deeper into the tissue

## N.N.[Cl][Pt][Cl] [cisplatin, Cisplatin]
[2]
  cisplatin released from NPs: 45%
